Patent publication US8278285B2, “Gastric carcinoma gene ZNF312b, a protein translated from the gene, and a diagnostic kit and a screening method for anticancer agents using the same” (Korea Research Institute of Bioscience and Biotechnology, priority 2007, dated 2012)

Tests used:
ZNF312b gene = ZNF312b gene expression inhibition by siRNA; type: cell-based, human; settings: compared among three siRNAs, FIG. 3
Text: To investigate the cell proliferation capacity of the stomach cancer cell line after inhibiting the expression of ZNF312b gene, three kinds of siRNAs [si-ZNF312b-1: 5′-GCA CTC TCT GCA TCT CAA C-3′ (SEQ. ID. NO: 6), si-ZNF312b-2: 5′-GTG TGT GGA AAG GTC TTT A-3′ (SEQ. ID. NO: 7), and si-ZNF312b-3′: 5′-GCA GTT CAA GTG CAA TAT C-3′ (SEQ. ID. NO: 8)] comprising 19 nucleotides of ZNF312b nucleotide sequence (SEQ. ID. NO: 1) were constructed, which were used for the investigation of ZNF312b gene expression inhibition.

K-ras / ERK pathway = assay: Western blotting of cell proliferation signal pathway after ZNF312b inhibition; type: cell-based, human; settings: stomach cancer cell line transfected with siRNA, FIG. 24
Protocol: First, lysis buffer A [20 mM HEPES (pH7.5), 150 mM NaCl, 1 mM EDTA, 2 mM EGTA, 1% Triton X-100, 10% glycerol, protease cocktail I, II (Sigma, USA)] was added to the cells, which stood at 4° C. for 20 minutes. The cell lysate was transferred into a new tube, followed by centrifugation at 4° C. at 15,000 rpm for 10 minutes to obtain protein. The cell lysate was heated at 95° C. for 10 minutes after adding 5× sample buffer, resulting in gel loading sample which proceeded to SDS PAGE gel electrophoresis. The protein bands separated according to their molecular weights by the above electrophoresis were transferred onto nitrocellulose membrane by using transfer kit (Bio-Rad, USA), followed by blocking for one hour with 5% skim milk. Next, each antibody [HA antibody for the detection of ZNF312b, and tubulin antibody for the detection of the control tubulin] was treated thereto at 4° C. for 12 hours. The membrane was washed with TBST buffer (0.2% Tween 20), and then treated with a secondary antibody for 1 hour. The membrane was washed with TBST and developed using HRP detection kit (AB frontier, Korea).
To investigate whether the signal pathway system involved in the cell proliferation of stomach cancer cell line was affected by inhibition of ZNF312b gene, the present inventors inhibited the expression of ZNF312b in stomach cancer cell line by transfecting the cell line with si-ZNF312b-1. […]

In the case of “si-ZNF312b-1: siRNA of 19 nucleotides of ZNF312b sequence, 5′-GCA CTC TCT GCA TCT CAA C-3′ (SEQ. ID. NO: 6) (sense GCACTCTCTGCATCTCAAC; listed as DNA, chemistry not given here)”, the “ZNF312b gene expression inhibition” value (ZNF312b gene) was “highest inhibition activity”, the “ERK pathway activity (phosphorylation of MEK1/2 and ERK1/2)” value (K-ras / ERK pathway) was “inactivation of ERK pathway” and the K-ras expression (K-ras / ERK pathway) was “decrease of K-ras expression”.
